Reference: patent US20060069132A1, “Azolecarboxamide herbicides” (priority 2004, published 2006)

Experiments:
ducksalad = experiment: Test B flooded paddy test; type: in vivo, Heteranthera limosa; conditions: 1000 g ai/ha, scale 0 to 100 (0 no effect, 100 complete control)
In short: (§1)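 Scale 0–100: zero equals no visible effect, 100 complete control, judged by eye relative to controls. Timing: 13 to 15 days in greenhouse post-treatment. Growth stage at spraying: two leaves (paddy) or one to four leaves, 2–18 cm (postemergence).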

barnyardgrass [1] = experiment: Test A pre-/postemergence herbicide test; type: in vivo, Echinochloa crus-galli
In short: (§2)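 Seeds sown in sandy loam received a preemergence directed soil spray of compound in non-phytotoxic solvent with surfactant; postemergence plants (2–10 cm, one- to two-leaf stage) were sprayed to runoff at the same time. After ~10 days in greenhouse, injury was rated visually versus untreated controls (0 = no effect, 100 = complete control).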

blackgrass = experiment: Test B postemergence herbicide test; type: in vivo, Alopecurus myosuroides; conditions: postemergence
In short: as §1

cocklebur = experiment: Test B pre-/postemergence herbicide test; type: in vivo, Xanthium strumarium; conditions: for Cocklebur plant response rating: postemergence
In short: (§3)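 Formulation: non-phytotoxic solvent mix with surfactant. Timing: preemergence on seed and postemergence on 2–18 cm plants, applied concurrently. Readout after 13–15 d greenhouse: visual 0–100 control rating against controls.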

morningglory [2] = experiment: Test B pre-/postemergence herbicide test; type: in vivo, Ipomoea coccinea; conditions: for Morningglory plant response rating: postemergence
In short: as §3

rice [3] = experiment: Test B pre-/postemergence herbicide test; type: in vivo, Oryza sativa; conditions: preemergence
In short: (§4)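 Seeds were planted and treated preemergence with compounds formulated in a non-phytotoxic solvent mixture containing surfactant, while plants at the 1- to 4-leaf stage (2 to 18 cm) received postemergence sprays. Flooded paddy plants were grown to the 2-leaf stage. After 13 to 15 days in a greenhouse, injury was visually rated 0–100 against untreated controls.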

velvetleaf [4] = experiment: Test A pre-/postemergence herbicide test; type: in vivo, Abutilon theophrasti
In short: as §2

large crabgrass [5] = experiment: Test A pre-/postemergence herbicide test; type: in vivo, Digitaria sanguinalis
In short: as §2

lambsquarters = experiment: Test B pre-/postemergence herbicide test; type: in vivo, Chenopodium album; conditions: for Lambsquarters plant response rating: postemergence
In short: as §4

giant foxtail [6] = experiment: Test B pre-/postemergence herbicide test; type: in vivo, Setaria faberi; conditions: for Foxtail, Giant plant response rating: postemergence
In short: as §4

wheat = experiment: Test B postemergence herbicide test; type: in vivo, Triticum aestivum; set-up: key to Wheat plant response rating: 0 = no effect, 100 = complete control; conditions: postemergence
In short: (§5)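 Greenhouse test; postemergence application to plants at 1–4 leaves (2–18 cm); paddy species at 2 leaves; evaluated visually vs controls at 13–15 days; scale 0–100 (100 = complete control).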

wild oat = experiment: Test B postemergence herbicide test; type: in vivo, Avena fatua; conditions: postemergence
In short: as §5

redroot pigweed = experiment: Test A pre-/postemergence herbicide test; type: in vivo, Amaranthus retroflexus
In short: as §2

Surinam grass = experiment: Test B pre-/postemergence herbicide test; type: in vivo, Urochloa decumbens; conditions: for Surinam Grass plant response rating: postemergence
In short: as §4

rice [7] = experiment: Test B flooded paddy test; type: in vivo, Oryza sativa; conditions: 1000 g ai/ha, scale 0 to 100 (0 no effect, 100 complete control)
In short: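 Visual ratings, 0 (no effect) to 100 (complete control), made versus controls after 13–15 d greenhouse. Paddy plants treated at 2-leaf stage; postemergence plants at 1- to 4-leaf stage, 2–18 cm tall.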

pigweed = experiment: Test B pre-/postemergence herbicide test; type: in vivo, Amaranthus retroflexus; conditions: for Pigweed plant response rating: postemergence
In short: as §4

morningglory [8] = experiment: Test A pre-/postemergence herbicide test; type: in vivo, Ipomoea spp.
In short: as §2

[9] = system: small flower umbrella sedge; experiment: Test B flooded paddy test; type: in vivo, Cyperus difformis; conditions: 1000 g ai/ha, scale 0 to 100 (0 no effect, 100 complete control)
In short: as §1

barnyardgrass [10] = experiment: Test B flooded paddy test; type: in vivo, Echinochloa crus-galli; conditions: 1000 g ai/ha, scale 0 to 100 (0 no effect, 100 complete control)
In short: as §1

corn = experiment: Test B pre-/postemergence herbicide test; type: in vivo, Zea mays; conditions: for Corn plant response rating: postemergence
In short: as §4

large crabgrass [11] = experiment: Test B pre-/postemergence herbicide test; type: in vivo, Digitaria sanguinalis; conditions: for Crabgrass, Large plant response rating: postemergence
In short: as §4

giant foxtail [12] = experiment: Test A pre-/postemergence herbicide test; type: in vivo, Setaria faberi
In short: as §2

barnyardgrass [13] = experiment: Test B pre-/postemergence herbicide test; type: in vivo, Echinochloa crus-galli; conditions: for Barnyardgrass plant response rating: postemergence
In short: as §3

velvetleaf [14] = experiment: Test B pre-/postemergence herbicide test; type: in vivo, Abutilon theophrasti; conditions: for Velvetleaf plant response rating: postemergence
In short: as §4

[15] = Postemergence, 500 g ai/ha, 0 to 100 scale, 0 no effect, 100 complete control
[16] = Postemergence, 2000 g ai/ha, 0 to 100 scale, 0 no effect, 100 complete control
[17] = Preemergence, 2000 g ai/ha, visual rating, 0 to 100 scale (0 no effect, 100 complete control)
[18] = preemergence, 500 g ai/ha, visual injury, 0 to 100 scale (0 no effect, 100 complete control)
[19] = 125 g ai/ha, visual rating, scale 0 (no effect) to 100 (complete control)
[20] = 500 g ai/ha, scale 0 to 100, 0 is no effect, 100 is complete control
[21] = 125 g ai/ha, 0 is no effect, 100 is complete control, preemergence
[22] = 500 g ai/ha, visual rating, 0 = no effect, 100 = complete control, preemergence

Structure (SMILES): CCSCNC(=O)c1cccc(NC(=O)c2cc(C(C)(C)C)nn2CC)c1 [Compound 329]
- Ducksalad plant response rating (ducksalad): 0
- Barnyardgrass plant response rating (barnyardgrass [1]; [15]): 15
- Plant response rating, Barnyardgrass (barnyardgrass [1]; [16]): 20
- Barnyardgrass plant response rating (barnyardgrass [1]; [17]): 5
- Barnyardgrass plant response rating (barnyardgrass [1]; [18]): 0
- Blackgrass plant response rating (blackgrass; [19]): 20
- Blackgrass plant response rating (blackgrass; [20]): 20
- Plant response rating (0 to 100 scale), Cocklebur (cocklebur; [21]): 0
- Cocklebur plant response rating (cocklebur; [19]): 0
- Plant response rating, Cocklebur (cocklebur; [22]): 0
- Cocklebur plant response rating (cocklebur; [20]): 30
- Plant response rating (0 to 100 scale), Morningglory (morningglory [2]; [21]): 0
- Morningglory plant response rating (morningglory [2]; [19]): 0
- Plant response rating, Morningglory (morningglory [2]; [22]): 0
- Morningglory plant response rating (morningglory [2]; [20]): 20
- Plant response rating (0 to 100 scale), Rice (rice [3]; 125 g ai/ha, 0 is no effect, 100 is complete control): 0
- Plant response rating, Rice (rice [3]; 500 g ai/ha, visual rating, 0 = no effect, 100 = complete control): 0
- Velvetleaf plant response rating (velvetleaf [4]; [15]): 10
- Plant response rating, Velvetleaf (velvetleaf [4]; [16]): 25
- Velvetleaf plant response rating (velvetleaf [4]; [17]): 10
- Velvetleaf plant response rating (velvetleaf [4]; [18]): 0
- Crabgrass, Large plant response rating (large crabgrass [5]; [15]): 10
- Plant response rating, Crabgrass, Large (large crabgrass [5]; [16]): 5
- Crabgrass, Large plant response rating (large crabgrass [5]; [17]): 0
- Crabgrass, Large plant response rating (large crabgrass [5]; [18]): 0
- Plant response rating (0 to 100 scale), Lambsquarters (lambsquarters; [21]): 0
- Lambsquarters plant response rating (lambsquarters; [19]): 30
- Lambsquarters plant response rating (lambsquarters; [20]): 70
- Plant response rating (0 to 100 scale), Foxtail, Giant (giant foxtail [6]; [21]): 0
- Foxtail, Giant plant response rating (giant foxtail [6]; [19]): 10
- Plant response rating, Foxtail, Giant (giant foxtail [6]; [22]): 0
- Foxtail, Giant plant response rating (giant foxtail [6]; [20]): 30
- Wheat plant response rating (wheat; [19]): 20
- Wheat plant response rating (wheat; [20]): 30
- Oat, Wild plant response rating (wild oat; [19]): 20
- Oat, Wild plant response rating (wild oat; [20]): 30
- Pigweed plant response rating (redroot pigweed; [15]): 10
- Plant response rating, Pigweed (redroot pigweed; [16]): 45
- Pigweed plant response rating (redroot pigweed; [17]): 10
- Pigweed plant response rating (redroot pigweed; [18]): 5
- Plant response rating (0 to 100 scale), Surinam Grass (Surinam grass; [21]): 0
- Surinam Grass plant response rating (Surinam grass; [19]): 10
- Plant response rating, Surinam Grass (Surinam grass; [22]): 0
- Surinam Grass plant response rating (Surinam grass; [20]): 20
- Rice plant response rating (rice [7]): 0
- Plant response rating (0 to 100 scale), Pigweed (pigweed; [21]): 0
- Pigweed plant response rating (pigweed; [19]): 50
- Plant response rating, Pigweed (pigweed; [22]): 0
- Pigweed plant response rating (pigweed; [20]): 80
- Morningglory plant response rating (morningglory [8]; [15]): 10
- Plant response rating, Morningglory (morningglory [8]; [16]): 20
- Morningglory plant response rating (morningglory [8]; [17]): 10
- Morningglory plant response rating (morningglory [8]; [18]): 0
- Sedge, Umbrella plant response rating [9]: 0
- Barnyardgrass plant response rating (barnyardgrass [10]): 0
- Plant response rating (0 to 100 scale), Corn (corn; [21]): 0
- Corn plant response rating (corn; [19]): 0
- Plant response rating, Corn (corn; [22]): 0
- Corn plant response rating (corn; [20]): 20
- Plant response rating (0 to 100 scale), Crabgrass, Large (large crabgrass [11]; [21]): 0
- Crabgrass, Large plant response rating (large crabgrass [11]; [19]): 0
- Plant response rating, Crabgrass, Large (large crabgrass [11]; [22]): 0
- Crabgrass, Large plant response rating (large crabgrass [11]; [20]): 10
- Foxtail, Giant plant response rating (giant foxtail [12]; [15]): 10
- Plant response rating, Foxtail, Giant (giant foxtail [12]; [16]): 20
- Foxtail, Giant plant response rating (giant foxtail [12]; [17]): 5
- Foxtail, Giant plant response rating (giant foxtail [12]; [18]): 0
- Plant response rating (0 to 100 scale), Barnyardgrass (barnyardgrass [13]; [21]): 0
- Barnyardgrass plant response rating (barnyardgrass [13]; [19]): 0
- Plant response rating, Barnyardgrass (barnyardgrass [13]; [22]): 0
- Barnyardgrass plant response rating (barnyardgrass [13]; [20]): 10
- Plant response rating (0 to 100 scale), Velvetleaf (velvetleaf [14]; [21]): 0
- Velvetleaf plant response rating (velvetleaf [14]; [19]): 10
- Plant response rating, Velvetleaf (velvetleaf [14]; [22]): 0
- Velvetleaf plant response rating (velvetleaf [14]; [20]): 30
